Data: patent US20200102264A1, “MARMELIN ANALOGS AND METHODS OF USE IN CANCER TREATMENT” (THE UNIVERSITY OF KANSAS, priority 2014, published 2020)

Assays:
Type in all cases: cell-based
[1] = test system: HCT116 colon cancer cells; assay: hexoseaminidase cell proliferation assay, HCT116
Excerpt: (§1) Using hexoseaminidase assay, we determined the effect of the compounds on cell proliferation. […]
(§2) Using hexoseaminidase assay, we determined the effect of the compounds on cell proliferation. […] […] […] Overall, the analogs can be used as chemotherapeutic agents against colon and pancreatic cancer.

[2] = test system: PanC-1 pancreatic cancer cells; assay: hexoseaminidase cell proliferation assay, PanC-1
Protocol: (§3) Using hexoseaminidase assay, we determined the effect of the compounds on cell proliferation. […] The IC50 value at 48 hours is below 10 μM in all the cancer cell lines.
(§4) Using hexoseaminidase assay, we determined the effect of the compounds on cell proliferation. […] The MRL16 IC50 value at 48 hours is below 0.3 μM in Colon cancer cell lines. […] Overall, the analogs can be used as chemotherapeutic agents against colon and pancreatic cancer.

SW480 colon cancer cells = assay: hexoseaminidase cell proliferation assay, SW480
Excerpt: as §1, §2

[3] = test system: MiaPaCa-2 pancreatic cancer cells; assay: hexoseaminidase cell proliferation assay, MiaPaCa-2
Protocol: as §3, §4

[4] = test system: colon, pancreatic and bladder cancer cells; assay: hexoseaminidase cell proliferation assay, summaries over cell lines; settings: dose and time dependent
Protocol: Water solubility studies were performed with the CD/analog complexes. […] The observed IC50 value of THBCD at 48 h is below 10 μM in all the colon, pancreatic and bladder cancer cells.
as §3, §4

[5] = Homo sapiens, HCT-116, HCT116, 24 h
[6] = Homo sapiens, HCT-116, HCT116, 48 h
[7] = Homo sapiens, HCT-116, HCT116, 72 h
[8] = Homo sapiens, MIA PaCa-2, MiaPaCa-2, 24 h
[9] = Homo sapiens, MIA PaCa-2, MiaPaCa-2, 48 h
[10] = Homo sapiens, MIA PaCa-2, MiaPaCa-2, 72 h

Row | IC50 [1, 5] | IC50 [1, 6] | IC50 [1, 7] | IC50 ([2]; Homo sapiens, PANC-1, 24 h) | IC50 ([2]; Homo sapiens, PANC-1, 48 h) | IC50 ([2]; Homo sapiens, PANC-1, 72 h) | IC50 (SW480 colon cancer cells; Homo sapiens, SW480, 24 h) | IC50 (SW480 colon cancer cells; Homo sapiens, SW480, 48 h) | IC50 (SW480 colon cancer cells; Homo sapiens, SW480, 72 h) | IC50 [3, 8] | IC50 [3, 9] | IC50 [3, 10] | IC50 ([1]; HCT116, 24 h) | IC50 ([1]; HCT116, 48 h) | IC50 ([1]; HCT116, 72 h) | IC50 ([2]; PanC-1, 24 h) | IC50 ([2]; PanC-1, 48 h) | IC50 ([2]; PanC-1, 72 h) | IC50 (SW480 colon cancer cells; SW480, 24 h) | Compound | inhibition of cell proliferation (in words) [4] | other results
1 | > 10 µM | > 10 µM | > 10 µM | > 10 µM | > 10 µM | > 10 µM | > 10 µM | > 10 µM | > 10 µM | > 10 µM | > 10 µM | > 10 µM |  |  |  |  |  |  |  | CC(=O)c1ccc2ccccc2c1O [MRL15] |  | 
2 |  |  |  |  |  |  |  |  |  |  |  |  | > 2 µM | 0.5 µM | 0.4 µM | > 10 µM | 5 µM | 1 µM | > 2 µM | C/C(=N\NC(=O)c1cc2ccccc2cc1O)c1ccc2ccccc2c1O [MRL20] | potent inhibitor | IC50 (SW480 colon cancer cells; SW480, 48 h): 1.2 µM; IC50 (SW480 colon cancer cells; SW480, 72 h): 1 µM; IC50 ([3]; MiaPaCa-2, 24 h): > 10 µM; IC50 ([3]; MiaPaCa-2, 48 h): 9 µM; IC50 ([3]; MiaPaCa-2, 72 h): 8 µM
3 | > 10 µM | 3.5 µM | 2 µM | > 10 µM | 5 µM | 4 µM | > 10 µM | 10 µM | 4 µM | > 10 µM | > 10 µM | 5 µM |  |  |  |  |  |  |  | C/C(=N\NC(=O)c1ccc(O)cc1)c1ccc2ccccc2c1O [MRL24] | potent inhibitor | 
4 | > 10 µM | 5 µM | 2.3 µM | > 10 µM | 10 µM | 4 µM | > 10 µM | > 10 µM | 5 µM | > 10 µM | > 10 µM | > 10 µM |  |  |  |  |  |  |  | C/C(=N\NC(=O)c1ccccc1)c1ccc2ccccc2c1O [MRL19] | potent inhibitor | 
5 | > 10 µM | > 10 µM | > 10 µM | > 10 µM | > 10 µM | > 10 µM | > 10 µM | > 10 µM | > 10 µM | > 10 µM | 5 µM | 4 µM |  |  |  |  |  |  |  | C/C(=N\NC(N)=S)c1ccc2ccccc2c1O [MRL23] | potent inhibitor | 
6 | > 10 µM | > 10 µM | > 10 µM | > 10 µM | > 10 µM | > 10 µM | > 10 µM | > 10 µM | > 10 µM | > 10 µM | > 10 µM | > 10 µM |  |  |  |  |  |  |  | C/C(=N\NC(=O)Cc1cc2ccccc2[nH]1)c1ccc2ccccc2c1O [MRL22] |  | 

Second part, the compound before the results:

Row | Compound | IC50 [1, 5] | IC50 [1, 6] | IC50 [1, 7] | IC50 ([2]; Homo sapiens, PANC-1, 24 h) | IC50 ([2]; Homo sapiens, PANC-1, 48 h) | IC50 ([2]; Homo sapiens, PANC-1, 72 h) | IC50 (SW480 colon cancer cells; Homo sapiens, SW480, 24 h) | IC50 (SW480 colon cancer cells; Homo sapiens, SW480, 48 h) | IC50 (SW480 colon cancer cells; Homo sapiens, SW480, 72 h) | IC50 [3, 8] | IC50 [3, 9] | IC50 [3, 10] | IC50 ([1]; HCT116, 24 h) | IC50 ([1]; HCT116, 48 h) | IC50 ([1]; HCT116, 72 h) | IC50 ([2]; PanC-1, 24 h) | IC50 ([2]; PanC-1, 48 h) | IC50 ([2]; PanC-1, 72 h) | IC50 (SW480 colon cancer cells; SW480, 24 h) | inhibition of cell proliferation (in words) [4] | other results
7 | C/C(=N\NC(=O)c1cc2ccccc2cc1O)c1cc2ccccc2oc1=O [COU] | > 50 µM | > 50 µM | > 50 µM | > 50 µM | > 50 µM | > 50 µM | > 50 µM | > 50 µM | > 50 µM | > 50 µM | > 50 µM | > 50 µM |  |  |  |  |  |  |  |  | 
8 | O=C(N/N=C/c1ccc(F)c(F)c1F)c1cc2ccccc2cc1O [MRL TFB] |  |  |  |  |  |  |  |  |  |  |  |  | > 50 µM | > 50 µM | > 50 µM | > 50 µM | > 50 µM | > 50 µM | > 50 µM |  | IC50 (SW480 colon cancer cells; SW480, 48 h): > 50 µM; IC50 (SW480 colon cancer cells; SW480, 72 h): > 50 µM; IC50 ([3]; MiaPaCa-2, 24 h): > 50 µM; IC50 ([3]; MiaPaCa-2, 48 h): > 50 µM; IC50 ([3]; MiaPaCa-2, 72 h): > 50 µM
9 | O=C(N/N=C/c1ccc(F)cc1)c1cc2ccccc2cc1O [MRL MFB] |  |  |  |  |  |  |  |  |  |  |  |  | > 50 µM | > 50 µM | > 50 µM | > 50 µM | > 50 µM | > 50 µM | > 50 µM |  | IC50 (SW480 colon cancer cells; SW480, 48 h): > 50 µM; IC50 (SW480 colon cancer cells; SW480, 72 h): > 50 µM; IC50 ([3]; MiaPaCa-2, 24 h): > 50 µM; IC50 ([3]; MiaPaCa-2, 48 h): > 50 µM; IC50 ([3]; MiaPaCa-2, 72 h): > 50 µM
